Experimental data as given in patent US8067424B2, “Selective inhibitors for cyclin-dependent kinases” (Emory University, priority 2007, dated 2011).
Read-outs that look alike come from different tables or passages of the source.

Assays:
Assay type in all cases: biochemical
MSK1 = MSK1 (Homo sapiens, UniProt O75582); test: Kinase screen: MSK1 assay
Description: (§1) Generally, the same procedure was used for all assays. Since the total assay volume was 25.5 microliters, 0.5 microliters of inhibitors at 51× assay concentration were added to the plates before any other addition.
(§2) The basic procedure was to add 0.5 microliters inhibitor/control in DMSO to plate. Fifteen microliters of enzyme/substrate/buffer mix were added and incubated for 5 min. Ten microliters MgATP at the relevant concentration were added and incubated for 30 min. The assay was stopped by adding 5 microliters of 3% orthophosphoric acid. The assay was transferred to a p81 filter plate and read in a scintillation counter of 30 sec/well. Note that this assay procedure was not followed for MKK1, which instead involved a two-step assay, and PKC alpha, which required the addition of lipid vesicles.
MSK1 assay: MSK1 (5-20 mU diluted in 20 mM MOPS pH 7.5, 1 mM EDTA, 0.01% Brij35, 0.1% b-mercaptoethanol, 1 mg/ml BSA) was assayed against a modified Crosstide peptide […] (SEQ ID NO: 4) in a final volume of 25.5 μl containing 8 mM MOPS pH7.0, 0.2 mM EDTA, 30 μM substrate peptide, 10 mM magnesium acetate and 0.02 mM [33P-g-ATP] (50-1000 cpm/pmole) and incubated for 30 min at room temperature Assays were stopped by addition of 5 μl of 0.5 M (3%) orthophosphoric acid and then harvested onto P81 Unifilter plates with a wash buffer of 50 mM orthophosphoric acid.

DYRK1A = DYRK1A (Homo sapiens, UniProt Q13627); test: Kinase screen: DYRK 1A assay
Description: as §1, §2
(§3) (50-1000 cpm/pmole) and incubated for 30 min at room temperature. Assays were stopped by addition of 5 μl of 0.5 M (3%) orthophosphoric acid and then harvested onto P81 Unifilter plates with a wash buffer of 50 mM orthophosphoric acid.

PLK1 = PLK1 (Homo sapiens, UniProt P53350); test: Kinase screen: PLK1 assay
Description: as §1, §2, §3

JNK1 = JNK1 (Homo sapiens, UniProt P45983); test: Kinase screen: JNK1a1/SAPK1c assay
Description: as §1, §2
JNK1a1/SAPK1c assay: JNK1a1/SAPK1c (5-20 mU diluted in 50 mM Tris pH 7.5, 0.1 mM EGTA, 1 mg/ml BSA, 0.1% b-mercaptoethanol) was assayed against ATF2 (activating transcription factor in a final volume of 25.5 μl in 50 mM Tris pH 7.5, 0.1 mM EGTA, 0.1% b-Mercaptoethanol, ATF2 (3 μM), 10 mM magnesium acetate and 0.02 mM [33P-g-ATP] (500-1000 cpm/pmole) and incubated for 30 min at room temperature. Assays were stopped by addition of 5 μl of 0.5 M (3%) orthophosphoric acid and then harvested onto P81 Unifilter plates with a wash buffer of 50 mM orthophosphoric acid.

PDK1 = biological target: T1, PDK1 (Homo sapiens, UniProt O15530); test: Kinase screen: PDK1 assay
T1 sequence (O15530 1-556): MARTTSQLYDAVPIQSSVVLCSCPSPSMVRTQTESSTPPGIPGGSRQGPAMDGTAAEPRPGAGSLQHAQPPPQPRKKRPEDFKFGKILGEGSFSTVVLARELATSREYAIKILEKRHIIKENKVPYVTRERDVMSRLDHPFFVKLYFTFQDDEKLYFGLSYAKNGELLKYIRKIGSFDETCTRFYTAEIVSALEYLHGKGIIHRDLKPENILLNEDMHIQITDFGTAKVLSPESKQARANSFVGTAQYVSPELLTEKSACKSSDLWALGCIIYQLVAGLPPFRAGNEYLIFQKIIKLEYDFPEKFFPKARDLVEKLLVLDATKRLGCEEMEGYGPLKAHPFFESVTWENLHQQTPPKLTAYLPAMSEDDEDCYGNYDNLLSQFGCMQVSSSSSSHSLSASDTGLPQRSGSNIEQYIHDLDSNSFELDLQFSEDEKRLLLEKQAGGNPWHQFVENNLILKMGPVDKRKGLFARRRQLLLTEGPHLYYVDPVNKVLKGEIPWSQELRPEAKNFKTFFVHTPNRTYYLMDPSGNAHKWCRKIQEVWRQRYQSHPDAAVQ
Description: as §1, §2
(50-1000 cpm/pmole) and incubated for 30 min at room temperature Assays were stopped by addition of 5 μl of 0.5 M (3%) orthophosphoric acid and then harvested onto P81 Unifilter plates with a wash buffer of 50 mM orthophosphoric acid.

YES1 = YES1 (Homo sapiens, UniProt P07947); test: Kinase screen: YES1 assay; conditions: 10 micromolar compound; for remaining activity at 10 µM: read-out: mean activity remaining (as a percentage of the original activity), YES1
Description: as §1, §2
YES1 assay: YES1 (5-20 mU diluted in 50 mM Tris pH 7.5, 0.1 mM EGTA, 1 mg/ml BSA) was assayed against a substrate peptide (Poly Glut Tyr) in a final volume of 25.5 μl containing 50 mM Tris pH 7.5, 1 mg/ml substrate peptide, 10 mM magnesium acetate and 0.02 mM [33P-g-ATP] (50-1000 cpm/pmole) and incubated for 30 min at room temperature. Assays were stopped by addition of 5 μl of 0.5 M (3%) orthophosphoric acid and then harvested onto P81 Unifilter plates with a wash buffer of 50 mM orthophosphoric acid.

IGF-1R = IGF-1R (Homo sapiens, UniProt P08069); test: Kinase screen: IGF-1R assay; conditions: 10 micromolar compound; for remaining activity at 10 µM: read-out: mean activity remaining (as a percentage of the original activity), IGF1-R
Description: as §1, §2
IGF-1R assay: IGF-1R (5-20 mU diluted in 50 mM Tris pH 7.5, 0.1 mM EGTA, 1 mg/ml BSA) was assayed against a substrate peptide ([…]) (SEQ ID NO: in a final volume of 25.5 μl containing 50 mM Tris pH 7.5, 300 μM substrate peptide, 10 mM magnesium acetate and 0.005 mM [33P-g-ATP] (50-1000 cpm/pmole) and incubated for 30 min at room temperature. Assays were stopped by addition of 5 μl of 0.5 M (3%) orthophosphoric acid and then harvested onto P81 Unifilter plates with a wash buffer of 50 mM orthophosphoric acid.

[1] = 10 micromolar compound, read-out: mean activity remaining (as a percentage of the original activity), MSK1
[2] = 10 micromolar compound, read-out: mean activity remaining (as a percentage of the original activity), DYRK 1A
[3] = 10 micromolar compound, read-out: mean activity remaining (as a percentage of the original activity), PLK 1
[4] = 10 micromolar compound, read-out: mean activity remaining (as a percentage of the original activity), JNK1
[5] = 10 micromolar compound, read-out: mean activity remaining (as a percentage of the original activity), PDK1

Chain of IGF-1R (P08069 31-1367, species assumed): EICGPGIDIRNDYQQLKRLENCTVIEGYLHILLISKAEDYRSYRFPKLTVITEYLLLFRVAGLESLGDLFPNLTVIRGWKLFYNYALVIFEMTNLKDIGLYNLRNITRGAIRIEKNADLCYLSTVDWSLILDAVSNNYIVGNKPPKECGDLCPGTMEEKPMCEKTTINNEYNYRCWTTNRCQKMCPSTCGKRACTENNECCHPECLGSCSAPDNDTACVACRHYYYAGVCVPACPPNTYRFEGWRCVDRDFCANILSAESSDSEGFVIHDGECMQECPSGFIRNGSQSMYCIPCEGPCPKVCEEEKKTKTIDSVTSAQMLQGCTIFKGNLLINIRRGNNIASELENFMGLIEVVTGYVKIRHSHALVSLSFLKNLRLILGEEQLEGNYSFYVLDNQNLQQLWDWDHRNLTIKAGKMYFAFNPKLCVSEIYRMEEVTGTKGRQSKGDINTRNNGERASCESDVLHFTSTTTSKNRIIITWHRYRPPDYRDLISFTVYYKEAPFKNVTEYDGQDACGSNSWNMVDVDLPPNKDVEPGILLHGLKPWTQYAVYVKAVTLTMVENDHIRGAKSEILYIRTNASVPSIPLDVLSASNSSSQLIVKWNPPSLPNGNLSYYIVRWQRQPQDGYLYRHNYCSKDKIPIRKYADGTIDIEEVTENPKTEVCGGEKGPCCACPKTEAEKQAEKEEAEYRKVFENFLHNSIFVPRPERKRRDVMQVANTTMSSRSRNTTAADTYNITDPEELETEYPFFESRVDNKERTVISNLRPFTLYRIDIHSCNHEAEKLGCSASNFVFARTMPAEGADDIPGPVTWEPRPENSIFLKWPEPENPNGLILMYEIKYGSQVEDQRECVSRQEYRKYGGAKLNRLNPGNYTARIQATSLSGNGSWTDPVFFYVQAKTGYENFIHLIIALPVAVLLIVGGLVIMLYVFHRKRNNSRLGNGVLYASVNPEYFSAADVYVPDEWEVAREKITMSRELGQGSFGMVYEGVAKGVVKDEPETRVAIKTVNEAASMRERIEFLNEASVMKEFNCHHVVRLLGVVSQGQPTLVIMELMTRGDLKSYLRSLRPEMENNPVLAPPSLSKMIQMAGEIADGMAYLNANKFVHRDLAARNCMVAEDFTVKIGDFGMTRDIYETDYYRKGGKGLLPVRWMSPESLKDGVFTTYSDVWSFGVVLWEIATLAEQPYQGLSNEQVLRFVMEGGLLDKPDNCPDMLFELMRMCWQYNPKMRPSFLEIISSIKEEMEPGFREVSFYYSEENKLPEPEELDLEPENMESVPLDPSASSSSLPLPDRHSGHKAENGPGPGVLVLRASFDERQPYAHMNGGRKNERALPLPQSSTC
Chain of JNK1 (P45983 1-384 isoform P45983-2, species assumed): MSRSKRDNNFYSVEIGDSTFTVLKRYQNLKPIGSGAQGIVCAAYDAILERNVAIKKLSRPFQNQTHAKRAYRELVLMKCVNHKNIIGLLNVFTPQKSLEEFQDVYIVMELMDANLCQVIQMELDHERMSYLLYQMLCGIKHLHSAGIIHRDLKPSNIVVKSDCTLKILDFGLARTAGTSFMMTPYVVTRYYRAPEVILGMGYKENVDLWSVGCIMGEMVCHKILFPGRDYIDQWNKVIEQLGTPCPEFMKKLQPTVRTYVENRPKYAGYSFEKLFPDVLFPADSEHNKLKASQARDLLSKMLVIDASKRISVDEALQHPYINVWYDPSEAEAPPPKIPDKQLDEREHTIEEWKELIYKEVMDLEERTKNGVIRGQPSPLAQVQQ
Chain of MSK1 (O75582 whole entry, species assumed): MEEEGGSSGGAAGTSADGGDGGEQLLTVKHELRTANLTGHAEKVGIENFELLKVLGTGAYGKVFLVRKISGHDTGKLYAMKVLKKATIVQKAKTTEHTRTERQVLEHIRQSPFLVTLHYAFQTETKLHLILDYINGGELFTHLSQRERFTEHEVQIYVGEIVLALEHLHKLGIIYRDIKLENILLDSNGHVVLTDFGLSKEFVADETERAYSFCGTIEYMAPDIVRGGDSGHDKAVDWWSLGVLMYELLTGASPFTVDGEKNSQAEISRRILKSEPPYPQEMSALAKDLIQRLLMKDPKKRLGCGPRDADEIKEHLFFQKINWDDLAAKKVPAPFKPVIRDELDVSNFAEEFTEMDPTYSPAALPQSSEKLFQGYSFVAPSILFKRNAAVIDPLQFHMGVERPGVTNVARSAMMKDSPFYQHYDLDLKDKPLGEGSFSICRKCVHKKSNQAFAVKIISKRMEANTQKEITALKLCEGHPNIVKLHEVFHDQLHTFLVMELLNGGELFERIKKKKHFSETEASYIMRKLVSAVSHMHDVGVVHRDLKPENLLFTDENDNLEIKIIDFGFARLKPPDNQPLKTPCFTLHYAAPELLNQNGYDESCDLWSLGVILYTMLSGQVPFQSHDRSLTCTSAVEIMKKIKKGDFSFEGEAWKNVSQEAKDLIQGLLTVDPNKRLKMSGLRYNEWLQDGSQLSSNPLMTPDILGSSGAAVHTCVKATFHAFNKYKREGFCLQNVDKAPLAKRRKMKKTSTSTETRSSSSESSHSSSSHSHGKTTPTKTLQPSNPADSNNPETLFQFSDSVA
Chain of YES1 (P07947 whole entry, species assumed): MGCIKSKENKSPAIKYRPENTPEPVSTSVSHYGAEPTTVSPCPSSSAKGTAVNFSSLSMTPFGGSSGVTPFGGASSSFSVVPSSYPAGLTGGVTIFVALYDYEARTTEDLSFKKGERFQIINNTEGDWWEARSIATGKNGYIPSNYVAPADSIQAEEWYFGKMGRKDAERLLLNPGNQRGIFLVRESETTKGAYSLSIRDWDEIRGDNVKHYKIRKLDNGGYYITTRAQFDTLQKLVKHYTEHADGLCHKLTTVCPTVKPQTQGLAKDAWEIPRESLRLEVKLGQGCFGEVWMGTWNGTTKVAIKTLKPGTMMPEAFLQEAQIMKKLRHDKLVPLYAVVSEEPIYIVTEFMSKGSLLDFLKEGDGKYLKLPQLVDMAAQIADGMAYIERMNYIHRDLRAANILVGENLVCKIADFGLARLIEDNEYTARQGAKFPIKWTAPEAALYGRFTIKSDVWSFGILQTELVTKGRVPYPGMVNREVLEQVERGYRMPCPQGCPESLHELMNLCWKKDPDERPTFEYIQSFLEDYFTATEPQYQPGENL
Chain of PLK1 (P53350 whole entry, species assumed): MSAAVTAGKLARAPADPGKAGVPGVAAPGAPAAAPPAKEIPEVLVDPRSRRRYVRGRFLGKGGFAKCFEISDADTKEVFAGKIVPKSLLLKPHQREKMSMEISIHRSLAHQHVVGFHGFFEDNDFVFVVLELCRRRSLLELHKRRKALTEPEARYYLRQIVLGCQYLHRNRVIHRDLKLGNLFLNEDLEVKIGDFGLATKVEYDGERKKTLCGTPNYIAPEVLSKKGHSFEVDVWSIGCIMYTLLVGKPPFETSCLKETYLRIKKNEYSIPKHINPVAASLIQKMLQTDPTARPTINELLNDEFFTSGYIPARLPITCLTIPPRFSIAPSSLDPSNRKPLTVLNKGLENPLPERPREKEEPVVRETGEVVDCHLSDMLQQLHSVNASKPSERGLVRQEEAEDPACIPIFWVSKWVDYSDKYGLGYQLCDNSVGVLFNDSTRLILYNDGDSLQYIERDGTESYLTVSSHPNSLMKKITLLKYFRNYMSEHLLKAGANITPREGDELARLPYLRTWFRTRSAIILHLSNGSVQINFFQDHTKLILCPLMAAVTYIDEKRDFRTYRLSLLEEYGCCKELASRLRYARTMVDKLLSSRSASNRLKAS

SMILES	remaining activity at 10 µM (MSK1; [1]) [%]	remaining activity at 10 µM (DYRK1A; [2]) [%]	remaining activity at 10 µM (YES1) [%]	remaining activity at 10 µM (PLK1; [3]) [%]	remaining activity at 10 µM (JNK1; [4]) [%]	remaining activity at 10 µM (PDK1; [5]) [%]	remaining activity at 10 µM (IGF-1R) [%]	other results
CC(C)c1cnn2c(NCc3ccccc3)cc(NCCCCCCCN)nc12 [BS-181]								remaining activity at 10 µM (MSK1; MSK1, 10 μM, read-out: Mean Remaining Enzyme Activity (%)): 65%; remaining activity at 10 µM (DYRK1A; DYRK1A, 10 μM, read-out: Mean Remaining Enzyme Activity (%)): 17%; IC50 (DYRK1A; kinase screen): 2300 nM; remaining activity at 10 µM (PLK1; PLK1, 10 μM, read-out: Mean Remaining Enzyme Activity (%)): 100%; remaining activity at 10 µM (JNK1; JNK1, 10 μM, read-out: Mean Remaining Enzyme Activity (%)): 100%; remaining activity at 10 µM (PDK1; PDK1, 10 μM, read-out: Mean Remaining Enzyme Activity (%)): 80%
C=C[C@H](CO)Nc1cc(NCc2ccccc2)n2ncc(C(C)C)c2n1 [ICEC0065]	88	30	90	56	95	78	63	
CC[C@H](CO)Nc1cc(NCc2ccccc2)n2ncc(C(C)C)c2n1 [ICEC0067]	86	27	87	64	98	87	63	
CC(C)c1cnn2c(NCc3ccccc3)cc(N[C@@H](CO)[C@H](O)CO)nc12 [ICEC0318, (3S)-3-(7-(Benzylamino)-3-isopropylpyrazolo[1,5-a]pyrimidin-5-ylamino)butane-1,2,4-triol]	96	15	89	68	93	84	67	
CC(C)c1cnn2c(NCc3ccccc3F)cc(NCCCCCN)nc12 [ICEC-0232]								mean activity remaining (as a percentage of the original activity), MSK1 (MSK1; 10 micromolar compound): 42%; mean activity remaining (as a percentage of the original activity), DYRK 1A (DYRK1A; 10 micromolar compound): 11%; mean activity remaining (as a percentage of the original activity), YES1 (YES1): 106%; mean activity remaining (as a percentage of the original activity), PLK 1 (PLK1; 10 micromolar compound): 55%; mean activity remaining (as a percentage of the original activity), JNK1 (JNK1; 10 micromolar compound): 87%; mean activity remaining (as a percentage of the original activity), PDK1 (PDK1; 10 micromolar compound): 101%; mean activity remaining (as a percentage of the original activity), IGF1-R (IGF-1R): 17%
